In ChEMBL document CHEMBL5614417, “Discovery of AMPs from random peptides via deep learning-based model and biological activity validation” (Eur J Med Chem, 2024):
Where a SMILES comes first, the peptide text is derived from it.

Assays:
Format in all cases: functional
Staphylococcus aureus = assay: Antibacterial activity against Staphylococcus aureus ATCC 25923 incubated for 18 hrs by visual inspection method
[1] = test system: Staphylococcus epidermidis; assay: Antibacterial activity against Staphylococcus epidermidis ATCC 12228 incubated for 18 hrs by visual inspection method
Bacillus subtilis = assay: Antibacterial activity against Bacillus subtilis ATCC 23857 incubated for 18 hrs by visual inspection method
Escherichia coli = assay: Antibacterial activity against Escherichia coli ATCC 25922 incubated for 18 hrs by visual inspection method
Acinetobacter baumannii = assay: Antibacterial activity against Acinetobacter baumannii ATCC 19606 incubated for 18 hrs by visual inspection method
Klebsiella pneumoniae = assay: Antibacterial activity against Klebsiella pneumoniae ATCC 700603 incubated for 18 hrs by visual inspection method

Compound | MIC (Staphylococcus aureus) [µg/mL] | MIC [1] [µg/mL] | MIC (Bacillus subtilis) [µg/mL] | MIC (Escherichia coli) [µg/mL] | MIC (Acinetobacter baumannii) [µg/mL] | MIC (Klebsiella pneumoniae) [µg/mL]
CC[C@H](C)[C@H](NC(=O)[C@@H](N)Cc1c[nH]c2ccccc12)C(=O)N[C@@H](Cc1c[nH]c2ccccc12)C(=O)N[C@H](C(=O)N[C@@H](Cc1ccccc1)C(=O)N[C@@H](CCCCN)C(=O)N[C@@H](Cc1c[nH]cn1)C(=O)N[C@@H](CC(C)C)C(=O)NCC(=O)N[C@@H](CS)C(=O)N[C@@H](CCC(N)=O)C(=O)N[C@@H](CCCCN)C(=O)N[C@@H](CCC(N)=O)C(N)=O)[C@@H](C)O (H-WIWTFKHLGCQKQ-NH2) | > 60 | > 60 | > 60 | > 60 | > 60 | > 60
CC[C@H](C)[C@H](NC(=O)[C@H](C)NC(=O)[C@H](Cc1c[nH]c2ccccc12)NC(=O)[C@H](CCCCN)NC(=O)[C@H](C)NC(=O)CNC(=O)[C@@H](NC(=O)[C@@H](N)CO)[C@@H](C)CC)C(=O)N[C@@H](Cc1c[nH]c2ccccc12)C(=O)N[C@@H](Cc1c[nH]c2ccccc12)C(=O)N[C@@H](Cc1c[nH]c2ccccc12)C(=O)N[C@@H](CCSC)C(=O)N[C@H](C(N)=O)C(C)C (H-SIGAKWAIWWWMV-NH2) | > 60 | > 60 | > 60 | > 60 | > 60 | > 60
CC[C@H](C)[C@H](NC(=O)[C@H](CCCCN)NC(=O)[C@H](Cc1c[nH]c2ccccc12)NC(=O)[C@H](C)NC(=O)[C@@H]1CCCN1C(=O)[C@H]1CCCN1C(=O)[C@@H](CC(C)C)NC(=O)[C@H](N)C(C)C)C(=O)N[C@@H](CCCCN)C(=O)N[C@@H](CCCCN)C(=O)NCC(=O)N[C@@H](Cc1ccccc1)C(=O)N[C@@H](CCC(N)=O)C(N)=O | > 60 | > 60 | > 60 | > 60 | > 60 | > 60
GRAMICIDIN | 1.88 | 3.75 | 3.75 | – | – | –
CC[C@H](C)[C@H](NC(=O)CNC(=O)[C@@H](NC(=O)[C@H](Cc1ccccc1)NC(=O)[C@@H](NC(=O)[C@H](Cc1c[nH]cn1)NC(=O)[C@H](Cc1c[nH]c2ccccc12)NC(=O)[C@@H](NC(=O)[C@@H]1CCCN1)[C@@H](C)O)[C@@H](C)CC)[C@@H](C)CC)C(=O)N[C@@H](Cc1c[nH]c2ccccc12)C(=O)N[C@@H](CO)C(=O)N[C@@H](CS)C(=O)N[C@@H](Cc1c[nH]c2ccccc12)C(N)=O (H-PTWHIFIGIWSCW-NH2) | > 60 | > 60 | > 60 | > 60 | > 60 | > 60
CC[C@H](C)[C@H](N)C(=O)N[C@H](C(=O)N[C@@H](Cc1ccccc1)C(=O)N[C@@H](CC(C)C)C(=O)N[C@H](C(=O)N[C@@H](CO)C(=O)NCC(=O)N[C@@H](Cc1ccccc1)C(=O)N[C@@H](CCCCN)C(=O)N[C@@H](CS)C(=O)N[C@@H](Cc1ccccc1)C(=O)N[C@@H](CCCCN)C(=O)NCC(N)=O)[C@@H](C)CC)C(C)C (H-IVFLISGFKCFKG-NH2) | > 60 | > 60 | > 60 | > 60 | > 60 | > 60
CC(C)C[C@H](NC(=O)[C@H](CCCCN)NC(=O)[C@H](CS)NC(=O)[C@H](CS)NC(=O)[C@@H](NC(=O)CNC(=O)[C@@H](NC(=O)[C@H](Cc1ccccc1)NC(=O)[C@H](CCC(N)=O)NC(=O)[C@H](CS)NC(=O)[C@@H](N)Cc1c[nH]c2ccccc12)C(C)C)C(C)C)C(=O)N[C@@H](CS)C(=O)N[C@H](C(N)=O)C(C)C (H-WCQFVGVCCKLCV-NH2) | > 60 | > 60 | > 60 | > 60 | > 60 | > 60
CC[C@H](C)[C@H](NC(=O)[C@H](CCCNC(=N)N)NC(=O)[C@H](Cc1c[nH]c2ccccc12)NC(=O)[C@@H](NC(=O)[C@H](Cc1c[nH]cn1)NC(=O)[C@H](Cc1c[nH]c2ccccc12)NC(=O)[C@@H](N)Cc1c[nH]c2ccccc12)[C@@H](C)CC)C(=O)N[C@@H](CO)C(=O)N[C@@H](CCSC)C(=O)N[C@@H](Cc1c[nH]c2ccccc12)C(=O)N[C@@H](CCSC)C(=O)N[C@@H](CS)C(=O)NCC(N)=O (H-WWHIWRISMWMCG-NH2) | > 60 | > 60 | > 60 | > 60 | > 60 | > 60
